Measurements from US10041104B2, “Microfluidic device” (Astrego Diagnostics AB, priority 2014, dated 2018).
≈ marks a conversion by molar mass, not a printed value.

Experiments:
[1] = test system: chloramphenicol-resistant E. coli strain; experiment: minimum inhibitory concentration (MIC); type: cell-based; conditions: Escherichia coli
[2] = test system: chloramphenicol-susceptible E. coli strain; experiment: minimum inhibitory concentration (MIC); type: cell-based; conditions: Escherichia coli
[3] = test system: chloramphenicol-susceptible and chloramphenicol-resistant E. coli strains; experiment: AST test in microfluidic device, phase contrast images (FIG. 15); type: cell-based, Escherichia coli; conditions: both strains exposed to 6 μg/ml chloramphenicol; images taken 15 min apart
Text: The microfluidic device of the embodiments can be used for various applications. An example of such application is antibiotic susceptibility testing (AST). For example, the microfluidic device 1 shown in FIG. 10 can be used for this purpose. In such a case, the sample strain can be loaded from, for instance, the common second fluid port 33A using the first fluid ports 31A′, 31B′, 31C′ as output ports for excess cells and culture medium and the common third fluid port 51 as output port for culture medium and for sucking cells into the cell channels. In an example, during loading culture medium is flown from the common second fluid port 33C to the common second fluid port 33B to prevent contaminating the common second fluid port 33C. After cell loading culture medium preferably flows from the common second fluid port 33C using the first fluid ports 31A′, 31B′, 31C′ and the common third fluid port 51 as output ports. At this stage growth of the cells in the cell channels can be monitored for some time, 0 min to days, while imaging the cells in the different cell channels. […] Susceptibility is monitored by the phenotypic response to antibiotic in the different cell channels. […] Some phenotypic changes are best studied by addition of test agents, such as 4′,6-diamidino-2-phenylindole (DAPI) and SYTOX® fluorescent stains, that can be monitored in a florescence channel. […]

[4] = test system: ciprofloxacin resistant E. coli strain DA20859; experiment: AST in microfluidic device, average growth rate response by phase contrast time lapse imaging (FIG. 18); type: cell-based, Escherichia coli
Text: The microfluidic device of the embodiments can be used for various applications. An example of such application is antibiotic susceptibility testing (AST). For example, the microfluidic device 1 shown in FIG. 10 can be used for this purpose. In such a case, the sample strain can be loaded from, for instance, the common second fluid port 33A using the first fluid ports 31A′, 31B′, 31C′ as output ports for excess cells and culture medium and the common third fluid port 51 as output port for culture medium and for sucking cells into the cell channels. In an example, during loading culture medium is flown from the common second fluid port 33C to the common second fluid port 33B to prevent contaminating the common second fluid port 33C. After cell loading culture medium preferably flows from the common second fluid port 33C using the first fluid ports 31A′, 31B′, 31C′ and the common third fluid port 51 as output ports. At this stage growth of the cells in the cell channels can be monitored for some time, 0 min to days, while imaging the cells in the different cell channels. The AST test starts by flowing different antibiotics or a same antibiotic but at different concentrations into the different sets 2A, 2B, 2C of cell channels using the first fluid ports 31A, 31B, 31C as input ports, while using the common second fluid ports 33A, 33B, 33C and the common third fluid port 51 as output ports. Susceptibility is monitored by the phenotypic response to antibiotic in the different cell channels. For example, it is possible to determine the average growth rate and the cell to cell distribution of growth rates just by monitoring the length extension in phase contrast using automatics images analysis routines. These measurements can be averaged over cells in many cell channels such that it is possible to determine minute phenotypic changes within a few minutes. Phenotypic changes can also be in morphological changes, such as the compaction of DNA or changes in membrane structure or in integrity. Some phenotypic changes are best studied by addition of test agents, such as 4′,6-diamidino-2-phenylindole (DAPI) and SYTOX® fluorescent stains, that can be monitored in a florescence channel.
The E. coli strain was exposed to (1) no drug marked with “x”, (2) erythromycin at 120 μg/ml marked with diamonds or (3) ciprofloxacin 10 μg/ml marked with circles. The time point 0 min corresponds to the start of the treatment. The curve corresponding to treatment with the drug (erythromycin) for which the strain is susceptible can be distinguished from the no treatment curve in <10 min. The curve corresponding to treatment with the drug for which the strain is susceptible can be distinguished from the curve corresponding to the drug (ciprofloxacin) for which the strain is resistant in <15 min.

[5] = test system: ciprofloxacin resistant E. coli strain DA20859; experiment: minimum inhibitory concentration (MIC); type: cell-based; conditions: Escherichia coli
[6] = test system: erythromycin-resistant E. coli strain; experiment: minimum inhibitory concentration (MIC); type: cell-based; conditions: Escherichia coli
[7] = test system: erythromycin-resistant and erythromycin-susceptible E. coli strains; experiment: AST in microfluidic device, average growth rate response (FIG. 17); type: cell-based, Escherichia coli; conditions: 120 μg/ml erythromycin at time 0 min
Text: The microfluidic device of the embodiments can be used for various applications. An example of such application is antibiotic susceptibility testing (AST). For example, the microfluidic device 1 shown in FIG. 10 can be used for this purpose. In such a case, the sample strain can be loaded from, for instance, the common second fluid port 33A using the first fluid ports 31A′, 31B′, 31C′ as output ports for excess cells and culture medium and the common third fluid port 51 as output port for culture medium and for sucking cells into the cell channels. In an example, during loading culture medium is flown from the common second fluid port 33C to the common second fluid port 33B to prevent contaminating the common second fluid port 33C. After cell loading culture medium preferably flows from the common second fluid port 33C using the first fluid ports 31A′, 31B′, 31C′ and the common third fluid port 51 as output ports. At this stage growth of the cells in the cell channels can be monitored for some time, 0 min to days, while imaging the cells in the different cell channels. […] Susceptibility is monitored by the phenotypic response to antibiotic in the different cell channels. […] Some phenotypic changes are best studied by addition of test agents, such as 4′,6-diamidino-2-phenylindole (DAPI) and SYTOX® fluorescent stains, that can be monitored in a florescence channel.

[8] = test system: erythromycin-susceptible (non-resistant) E. coli strains; experiment: minimum inhibitory concentration (MIC); type: cell-based; conditions: Escherichia coli; two non-resistant E. coli strains (circles and diamonds in FIG. 17)

Row | Compound | MIC [1] [µg/mL] | MIC [2] [µg/mL] | growth of susceptible strain compared with resistant strain [3] | susceptibility of the strain to the drug [4] | MIC [5] [µg/mL] | MIC [6] [µg/mL] | time in which treatment curve can be distinguished from no treatment curve (average growth rate) ([4]; erythromycin 120 μg/ml) [min] | time in which curve of drug for which strain is susceptible can be distinguished from curve of drug for which strain is resistant ([4]; erythromycin 120 μg/ml versus ciprofloxacin 10 μg/ml) [min] | time in which resistant strain can be distinguished from susceptible strains (average growth rate) [7] | MIC [8] [µg/mL]
1 | O=C(N[C@H](CO)[C@H](O)c1ccc([N+](=O)[O-])cc1)C(Cl)Cl [chloramphenicol] | > 12 | ~4 (≈ 12.4 µM) | grown much less than the chloramphenicol-resistant strain |  |  |  |  |  |  | 
2 | O=C(O)c1cn(C2CC2)c2cc(N3CCNCC3)c(F)cc2c1=O [ciprofloxacin] |  |  |  | resistant | ~30 (≈ 90.5 µM) |  |  |  |  | 
3 | CC[C@H]1OC(=O)[C@H](C)[C@@H](O[C@H]2C[C@@](C)(OC)[C@@H](O)[C@H](C)O2)[C@H](C)[C@@H](O[C@@H]2O[C@H](C)C[C@H](N(C)C)[C@H]2O)[C@](C)(O)C[C@@H](C)C(=O)[C@H](C)[C@@H](O)[C@]1(C)O [erythromycin] |  |  |  | susceptible |  | 256 (≈ 349 µM) | < 10 | < 15 | less than 20 min | ~12 (≈ 16.4 µM)
